These results are taken from US12534452B2, “N-(1H-imidazol-2-yl)benzamide compound and pharmaceutical composition comprising the same as active ingredient” (KAINOS MEDICINE, INC., priority 2019, dated 2026).

Sequence of IRAK4 (Q9NWZ3 whole entry): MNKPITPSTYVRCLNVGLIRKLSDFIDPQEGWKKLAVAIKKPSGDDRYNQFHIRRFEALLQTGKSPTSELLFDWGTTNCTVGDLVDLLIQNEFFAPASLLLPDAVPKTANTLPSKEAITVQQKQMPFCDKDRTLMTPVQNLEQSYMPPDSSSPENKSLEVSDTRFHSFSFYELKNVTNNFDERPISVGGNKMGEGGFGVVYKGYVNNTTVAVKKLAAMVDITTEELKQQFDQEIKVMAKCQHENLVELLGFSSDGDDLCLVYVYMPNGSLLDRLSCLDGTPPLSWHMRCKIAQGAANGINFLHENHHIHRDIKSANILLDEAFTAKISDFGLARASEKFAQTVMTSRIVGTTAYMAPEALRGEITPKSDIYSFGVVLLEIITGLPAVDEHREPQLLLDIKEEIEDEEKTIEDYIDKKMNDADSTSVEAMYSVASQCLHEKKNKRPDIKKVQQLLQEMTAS

The target in this test is IRAK4 (Homo sapiens (Human), UniProt Q9NWZ3). The test is described as follows: In vitro IRAK4 phosphorylation activity assay. The format is biochemical. To be noted: [γ-33P]-ATP, myelin basic protein substrate, 40 minutes at room temperature; categories. On the procedure:
In vitro IRAK4 analysis was performed using N-(1H-imidazol-2-yl)benzamide compounds according to the present invention. All compounds were prepared by dissolving in DMSO. N-(1H-imidazol-2-yl)benzamide compound according to the present invention and other elements for the reaction were added to an assay well. In the standard Kinase Profiler service the preincubation step between the N-(1H-imidazol-2-yl)benzamide compound and kinase was not performed before the reaction.
To the positive control well, all reactants except for the N-(1H-imidazol-2-yl)benzamide compound according to the present invention were added, and DMSO was added to remove the solvent effect. A known control inhibitor having the following structure was added to the blank wells to inhibit kinase activity and establish a base-line.
IRAK4 was incubated with 8 mM MOPS pH 7.0, 0.2 mM EDTA, 0.33 mg/mL myelin basic protein, 10 mM magnesium acetate and [γ-33P]-ATP (specific activity approx. 500 cpm/pmol, concentration as required). The reaction was initiated by the addition of the MgATP mix. After incubation for 40 minutes at room temperature, the reaction was stopped by the addition of 3% phosphoric acid solution. 10 μL of the reaction was then spotted onto a P30 filtermat and washed three times for 5 minutes in 75 mM phosphoric acid and once in methanol prior to drying and scintillation counting.
The results are shown in Table 26 below, where the phosphorylation activity of IC50 values for IRAK4 is shown in categories (A: <50 nM, B: 50-100 nM, C: >100 nM).
With `Cn1cc(-c2cccc(C(=O)Nc3nc(CCCCCCN4CCCC4=O)cn3-c3ccccc3)c2)cn1` [Example 225, 3-(1-methyl-1H-pyrazol-4-yl)-N-(4-(6-(2-oxopyrrolidin-1-yl)hexyl)-1-phenyl-1H-imidazol-2-yl)benzamide], the IC50 was less than 50 nM.

On to `CN1CCN(C(=O)CCCc2cn(-c3ccccc3)c(NC(=O)c3cccc(-c4cn[nH]c4F)c3)n2)CC1` [Example 230, 3-(5-fluoro-1H-pyrazol-4-yl)-N-(4-(4-(4-methylpiperazin-1-yl)-4-oxobutyl)-1-phenyl-1H-imidazol-2-yl)benzamide], for which the half-maximal inhibitory concentration (IC50) is less than 50 nM.

`CCOC(C)n1cc(-c2cccc(C(=O)Nc3nc(CCCCCCN4CCCCC4)cn3-c3ccccc3)c2)cn1` (centres unmarked) [Example 138, 3-(1-(1-ethoxyethyl)-1H-pyrazol-4-yl)-N-(1-phenyl-4-(6-(piperidin-1-yl)hexyl)-1H-imidazol-2-yl)benzamide] yielded an IC50 of 50 to 100 nM.

As to `O=C(Nc1nc(CCCC(=O)N2CCCCC2)cn1-c1ccccc1)c1cccc(-c2cn[nH]c2F)c1` [Example 231, 3-(5-fluoro-1H-pyrazol-4-yl)-N-(4-(4-oxo-4-(piperidin-1-yl)butyl)-1-phenyl-1H-imidazol-2-yl)benzamide], the IC50 was less than 50 nM.

As to `CCOC(C)n1cc(-c2cccc(C(=O)Nc3nc(CCCC(=O)NC4CC4)cn3-c3ccccc3)c2)cn1` (centres unmarked) [Example 72, N-(4-(4-(cyclopropylamino)-4-oxobutyl)-1-phenyl-1H-imidazol-2-yl)-3-(1-(1-ethoxyethyl)-1H-pyrazol-4-yl)benzamide], the IC50 was greater than 100 nM.

The compound `Cn1cc(-c2cccc(C(=O)Nc3nc(CCCC(=O)NN4CCCCC4)cn3-c3ccccc3)c2)cn1` [Example 152, 3-(1-methyl-1H-pyrazol-4-yl)-N-(4-(4-oxo-4-(piperidin-1-ylamino)butyl)-1-phenyl-1H-imidazol-2-yl)benzamide] yielded an IC50 of 50 to 100 nM.

The compound `Cn1cc(-c2cccc(C(=O)Nc3nc(CCCC(=O)NC4CC4)cn3-c3ccc(F)cc3)c2)cn1` [Example 300, N-(4-(4-(cyclopropylamino)-4-oxobutyl)-1-(4-fluorophenyl)-1H-imidazol-2-yl)-3-(1-methyl-1H-pyrazol-4-yl)benzamide] registered an IC50 of less than 50 nM.

Compound `CN(C(=O)CCCc1cn(-c2ccccc2)c(NC(=O)c2cccc(-c3cnn(C)c3F)c2)n1)C1CC1` [Example 233, N-(4-(4-(cyclopropyl(methyl)amino)-4-oxobutyl)-1-phenyl-1H-imidazol-2-yl)-3-(5-fluoro-1-methyl-1H-pyrazol-4-yl)benzamide] returned an IC50 of 50 to 100 nM.

`O=C(CCc1cn(-c2ccncc2)c(NC(=O)c2cccc(-c3cn[nH]c3)c2)n1)Nc1ccccc1` [Example 303, N-(4-(3-oxo-3-(phenylamino)propyl)-1-(pyridin-4-yl)-1H-imidazol-2-yl)-3-(1H-pyrazol-4-yl)benzamide] returned an IC50 greater than 100 nM.

The compound `CN1CCN(C(=O)CCCCCc2cn(-c3ccccc3)c(NC(=O)c3cccc(-c4ccc(N)nc4)c3)n2)CC1` [Example 272, 3-(6-aminopyridin-3-yl)-N-(4-(6-(4-methylpiperazin-1-yl)-6-oxohexyl)-1-phenyl-1H-imidazol-2-yl)benzamide] displayed an IC50 of less than 50 nM.

In the case of `O=C(Nc1nc(CCCCCC(=O)N2CCCCCC2)cn1-c1ccccc1)c1cccc(-c2ccc3[nH]ncc3c2)c1` [Example 241, N-(4-(6-(azepan-1-yl)-6-oxohexyl)-1-phenyl-1H-imidazol-2-yl)-3-(1H-indazol-5-yl)benzamide], the IC50 is less than 50 nM.

The compound `CN1CCN(C(=O)CCCCCc2cn(-c3ccccc3)c(NC(=O)c3cccc(-c4cnn(C)c4)c3)n2)CC1` [Example 201, 3-(1-methyl-1H-pyrazol-4-yl)-N-(4-(6-(4-methylpiperazin-1-yl)-6-oxohexyl)-1-phenyl-1H-imidazol-2-yl)benzamide] registered an IC50 of less than 50 nM.

On to `Nc1ccc(-c2cccc(C(=O)Nc3nc(CCCCCCNC(=O)C4CC4)cn3-c3ccccc3)c2)cn1` [Example 278, 3-(6-aminopyridin-3-yl)-N-(4-(6-(cyclopropanecarboxamido)hexyl)-1-phenyl-1H-imidazol-2-yl)benzamide], for which the IC50 was less than 50 nM.

`Cn1cc(-c2cccc(C(=O)Nc3nc(CCCC(=O)O)cn3-c3ccccc3)c2)cn1` [Example 140, 4-(2-(3-(1-methyl-1H-pyrazol-4-yl)benzamido)-1-phenyl-1H-imidazol-4-yl)butanoic acid] showed an IC50 of 50 to 100 nM.

The compound `O=C(Nc1nc(CCCCCCN2CCOCC2)cn1-c1ccccc1)c1cccc(-c2ccc3[nH]ncc3c2)c1` [Example 254, 3-(1H-indazol-5-yl)-N-(4-(6-morpholinohexyl)-1-phenyl-1H-imidazol-2-yl)benzamide] had an IC50 of less than 50 nM.

In turn, `O=C(O)CCCc1cn(-c2ccccc2)c(NC(=O)c2cccc(-c3cn[nH]c3)c2)n1` [Example 57, 4-(2-(3-(1H-pyrazol-4-yl)benzamido)-1-phenyl-1H-imidazol-4-yl)butanoic acid] returned an IC50 of less than 50 nM.

With `Cn1cc(-c2cccc(C(=O)Nc3nc(CCCC(=O)N[C@H]4CC[C@H](N)CC4)cn3-c3ccccc3)c2)cn1` [Example 215, N-(4-(4-(((1R,4R)-4-aminocyclohexyl)amino)-4-oxobutyl)-1-phenyl-1H-imidazol-2-yl)-3-(1-methyl-1H-pyrazol-4-yl)benzamide], the IC50 was 50 to 100 nM.

`CNC(=O)CCc1cn(-c2ccccc2)c(NC(=O)c2cccc(-c3cn[nH]c3)c2)n1` [Example 33, N-(4-(3-(methylamino)-3-oxopropyl)-1-phenyl-1H-imidazol-2-yl)-3-(1H-pyrazol-4-yl)benzamide] registered an IC50 of less than 50 nM.

Turning to `O=C(Nc1nc(CCCCCCN2CCCCC2)cn1-c1ccc(F)cc1F)c1cccc(-c2cn[nH]c2)c1` [Example 302, N-(1-(2,4-difluorophenyl)-4-(6-(piperidin-1-yl)hexyl)-1H-imidazol-2-yl)-3-(1H-pyrazol-4-yl)benzamide], the IC50 is greater than 100 nM.

Compound `O=C(Nc1nc(CCN2CCCCC2)cn1-c1ccccc1)c1cccc(-c2cn[nH]c2)c1` [Example 104, N-(1-phenyl-4-(2-(piperidin-1-yl)ethyl)-1H-imidazol-2-yl)-3-(1H-pyrazol-4-yl)benzamide] registered an IC50 greater than 100 nM.

`Cn1cc(-c2cccc(C(=O)Nc3nc(CCCCCCNC(=O)C4CC4)cn3-c3ccccc3)c2)cn1` [Example 228, N-(4-(6-(cyclopropanecarboxamido)hexyl)-1-phenyl-1H-imidazol-2-yl)-3-(1-methyl-1H-pyrazol-4-yl)benzamide]: the IC50 was less than 50 nM.

The compound `COC(=O)Cc1cn(-c2ccccc2)c(NC(=O)c2cccc(-c3cn[nH]c3)c2)n1` [Example 42, methyl 2-(2-(3-(1H-pyrazol-4-yl)benzamido)-1-phenyl-1H-imidazol-4-yl)acetate] came in with an IC50 of 50 to 100 nM.

`Cn1cc(-c2cccc(C(=O)Nc3nc(CCCCNC(=O)C4CC4)cn3-c3ccccc3)c2)cn1` [Example 227, N-(4-(4-(cyclopropanecarboxamido)butyl)-1-phenyl-1H-imidazol-2-yl)-3-(1-methyl-1H-pyrazol-4-yl)benzamide]: the IC50 was less than 50 nM.

As for `CNC(=O)CCCc1cn(-c2ccc(F)cc2F)c(NC(=O)c2cccc(-c3cn[nH]c3)c2)n1` [Example 298, N-(1-(2,4-difluorophenyl)-4-(4-(methylamino)-4-oxobutyl)-1H-imidazol-2-yl)-3-(1H-pyrazol-4-yl)benzamide], the IC50 lay within 50 to 100 nM.

`COC[C@@H]1CCCN1C(=O)Cc1cn(-c2ccccc2)c(NC(=O)c2cccc(-c3cn[nH]c3)c2)n1` [Example 46, (S)—N-(4-(2-(2-(methoxymethyl)pyrrolidin-1-yl)-2-oxoethyl)-1-phenyl-1H-imidazol-2-yl)-3-(1H-pyrazol-4-yl)benzamide]: the IC50 was 50 to 100 nM.

Compound `Cn1cc(-c2cccc(C(=O)Nc3nc(CCCC(=O)N4CCC(N5CCCC5)CC4)cn3-c3ccccc3)c2)cn1` [Example 154, 3-(1-methyl-1H-pyrazol-4-yl)-N-(4-(4-oxo-4-(4-(pyrrolidin-1-yl)piperidin-1-yl)butyl)-1-phenyl-1H-imidazol-2-yl)benzamide] had an IC50 of less than 50 nM.

Compound `COC[C@H]1CCCN1C(=O)CCCCc1cn(-c2ccccc2)c(NC(=O)c2cccc(-c3cn[nH]c3)c2)n1` [Example 87, (R)—N-(4-(5-(2-(methoxymethyl)pyrrolidin-1-yl)-5-oxopentyl)-1-phenyl-1H-imidazol-2-yl)-3-(1H-pyrazol-4-yl)benzamide] registered an IC50 of less than 50 nM.

`Cn1cc(-c2cccc(C(=O)Nc3nc(CCCC(=O)NC[C@@H](F)C(C)(C)O)cn3-c3ccccc3)c2)cn1` [Example 185, (R)—N-(4-(4-((2-fluoro-3-hydroxy-3-methylbutyl)amino)-4-oxobutyl)-1-phenyl-1H-imidazol-2-yl)-3-(1-methyl-1H-pyrazol-4-yl)benzamide] had a 50% inhibitory concentration (IC50) of 50 to 100 nM.

For `Cn1cc(-c2cccc(C(=O)Nc3nc(CCCC(=O)NCCN4CCOCC4)cn3-c3ccccc3)c2)cn1` [Example 184, 3-(1-methyl-1H-pyrazol-4-yl)-N-(4-(4-((2-morpholinoethyl)amino)-4-oxobutyl)-1-phenyl-1H-imidazol-2-yl)benzamide], the IC50 was greater than 100 nM.
